Test results published in US4942171A, “The compound, 6-(1-imidazolyl methyl)-5,6,7,8-tetrahydronaphthalene-2-carboxylic acid and salts thereof having antidiabetic activity” (Daiichi Seiyaku Co., Ltd., priority 1987, dated 1990).
Counter-ions that a name gives are not always drawn.

Key:
[1] = test system: spontaneous hypertensive male rats (SHR); assay: Efficacy in Diabetic Model: Determination of Blood Sugar Level, non-diabetic SHR; format: in vivo, rat; conditions: for Blood Sugar Level: SHR (n = 8), mean ± S.E.
Description: (§1) 5-Week old spontaneous hypertensive male rats (SHR), available from Nippon Charles River, were used. Streptozotocin (STZ) was dissolved in a 0.1M citrate buffer solution (pH 4.5) and injected into the tail vein of the rats at a dose level of 50 mg/kg to prepare diabetic rats. For control, rats received 1 ml/kg of the citrate buffer solution alone through administration to the tail vein. After one week from the STZ administration, blood was taken from the tail vein of the unanesthetized rats, and the blood sugar level was determined. Those rats having a blood sugar level of 300 mg/dl or higher were used as diabetic rats.
(§2) 6-(1-Imidazolylmethyl)-5,6,7,8-tetrahydronaphthalene- 2-carboxylic acid hydrochloride hemihydrate (hereinafter referred to as Compound A) was dissolved in distilled water and administered orally to the test animals at a dose level of 1 mg/kg/day or 10 mg/kg/day for 5 consecutive months from one week after the administration of STZ or a citrate buffer solution.
(§3) Just before the administration of Compound A, blood was sampled from the tail vein of the rats without any restriction of diet to determine the blood sugar level using a commercial glucose assay kit (Trade name: New Blood Sugar Test, produced by Boehringer Mannheim Co., Ltd., West Germany). The results are shown in Table 1, expressed as mean ±S.E.

[2] = Acute Toxicity in Rats; conditions: rat, in vivo
Description: Acute toxicities of Compound A in rats through oral administration or intravenous injection were as follows.

[3] = test system: streptozotocin-induced diabetic spontaneous hypertensive rats; assay: Efficacy in Diabetic Model: Determination of Blood Sugar Level, STZ-induced diabetic SHR; format: in vivo, rat; conditions: for Blood Sugar Level: Diabetic SHR (n = 7), mean ± S.E.
Description: as §1, §2, §3

[4] = test system: diabetic SHR; assay: Determination of Glucose Tolerance in diabetic SHR; format: in vivo, rat; conditions: for Blood Sugar Level (Effect on Glucose Tolerance): 3 months
Description: as §1, §2
After 3 months from the start of the administration of Compound A, the rats were fasted for 18 hours. Glucose was administered orally to the rats at a dose level of 2 g/kg. Blood was sampled from the tail vein of the rats just before the administration of glucose and at 1 hour and 2 hours after the administration to determine the blood sugar lever using the above method. The result was shown in Table 2, expressed as mean +S.E.

[5] = 1 mg/kg/day p.o., 0 weeks (before administration)
[6] = 10 mg/kg/day p.o., 0 weeks (before administration)

## O=C(O)c1ccc2c(c1)CCC(Cn1ccnc1)C2 (centres unmarked) [Compound A, 6-(1-Imidazolylmethyl)-5,6,7,8-tetrahydronaphthalene-2-carboxylic acid hydrochloride hemihydrate]
[1]; [5]
  Blood Sugar Level: 100.7 mg/dL
[1]; 1 mg/kg/day p.o., 2 weeks
  Blood Sugar Level: 95.4 mg/dL
[1]; 1 mg/kg/day p.o., 8 weeks
  Blood Sugar Level: 94.5 mg/dL
[1]; [6]
  Blood Sugar Level: 108.0 mg/dL
[1]; 10 mg/kg/day p.o., 2 weeks
  Blood Sugar Level: 90.9 mg/dL
[1]; 10 mg/kg/day p.o., 8 weeks
  Blood Sugar Level: 93.2 mg/dL
[1]; non-diabetic SHR
  effect on blood sugar level in SHR: not affected
[2]; iv, female rats
  LD50: 783 mg/kg
[2]; iv, male rats
  LD50: 807 mg/kg
[2]; po, female rats
  LD50: 1990 mg/kg
[2]; po, male rats
  LD50: 2440 mg/kg
[3]; 8 weeks after the start of administration
  effect on blood sugar level of diabetic SHR: significantly lowered the blood sugar level
[3]; [5]
  Blood Sugar Level: 374.6 mg/dL
[3]; 1 mg/kg/day p.o., 2 weeks, control 481.5
  Blood Sugar Level: 406.3 mg/dL
[3]; 1 mg/kg/day p.o., 8 weeks, control 544.2
  Blood Sugar Level: 445.0 mg/dL
[3]; [6]
  Blood Sugar Level: 361.4 mg/dL
[3]; 10 mg/kg/day p.o., 2 weeks, control 481.5, *P < 0.05 vs control
  Blood Sugar Level: 365.2 mg/dL
[3]; 10 mg/kg/day p.o., 8 weeks, control 544.2, **P < 0.01 vs control
  Blood Sugar Level: 277.3 mg/dL
[3]; from 2 weeks after the start of administration
  effect on high blood sugar level of diabetic SHR: tendency to lower the high blood sugar level
[4]; 1 mg/kg/day p.o. (n = 7), 1 hour after glucose load (2 g/kg p.o.), control 329.5
  Blood Sugar Level (Effect on Glucose Tolerance): 255.4 mg/dL
[4]; 1 mg/kg/day p.o. (n = 7), 2 hours after glucose load (2 g/kg p.o.), control 280.8
  Blood Sugar Level (Effect on Glucose Tolerance): 167.3 mg/dL
[4]; 1 mg/kg/day p.o. (n = 7), just before the glucose load (2 g/kg p.o.), control 178.5
  Blood Sugar Level (Effect on Glucose Tolerance): 136.8 mg/dL
[4]; 10 mg/kg/day p.o. (n = 8), 1 hour after glucose load (2 g/kg p.o.), control 329.5, *P < 0.05 vs control
  Blood Sugar Level (Effect on Glucose Tolerance): 202.4 mg/dL
[4]; 10 mg/kg/day p.o. (n = 8), 2 hours after glucose load (2 g/kg p.o.), control 280.8
  Blood Sugar Level (Effect on Glucose Tolerance): 137.1 mg/dL
[4]; 10 mg/kg/day p.o. (n = 8), just before the glucose load (2 g/kg p.o.), control 178.5
  Blood Sugar Level (Effect on Glucose Tolerance): 105.1 mg/dL
[4]; rat, in vivo
  glucose tolerance in the diabetic SHR: improved the glucose tolerance
